The results in this text go back to patent US6107274A, “Piperazines as inhibitors of fructose-1,6-bisphosphatase (FBPase)” (Ontogen Corporation, priority 1999, dated 2000).

The first assay concerns the target T1, fructose-1,6-bisphosphatase (FBPase) (Homo sapiens, UniProt P09467).
T1 sequence (P09467 1-338): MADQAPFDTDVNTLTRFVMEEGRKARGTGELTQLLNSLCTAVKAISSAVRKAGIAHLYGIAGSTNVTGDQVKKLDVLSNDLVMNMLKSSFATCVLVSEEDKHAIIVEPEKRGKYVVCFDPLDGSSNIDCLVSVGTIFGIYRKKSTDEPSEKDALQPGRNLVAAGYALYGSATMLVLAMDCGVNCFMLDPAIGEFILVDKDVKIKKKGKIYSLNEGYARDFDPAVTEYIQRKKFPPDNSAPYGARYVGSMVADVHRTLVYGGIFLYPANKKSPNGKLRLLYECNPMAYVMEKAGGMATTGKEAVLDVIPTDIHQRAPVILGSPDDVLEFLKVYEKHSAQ
Description: FBPase inhibition assay (Taketa and Pogell): conversion of fructose-1,6-bisphosphate to fructose-6-phosphate, NADPH formation at 340 nm via coupled reactions. It is filed as biochemical. Conditions: concentration of inhibitor giving 50% inhibition of FBPase activity; read-out: IC50. As to the method:
The above compounds are assayed utilizing the procedure described by Taketa and Pogell (J. Biol. Chem. 240:651 (1965)), wherein the conversion of fructose-1,6-bisphosphate to fructose-6-phosphate is measured by monitoring the conversion of NADP to NADPH through two coupled reactions mediated by phosphoglucose isomerase and glucose-6-phosphate dehydrogenase. The increase in NADPH concentration during the course of the reactions was determined by measuring the increase in absorption at 340 nm. The controls used in the assay were adenosine monophosphate CAMP, 1(50 1.4±0.5 μM) and fructose 2.6-bisphosphate (1(50 2.9±0.9 μM). The results obtained of the above compounds are as follows (Table 2):
In Table 2, IC50 represents the concentration of inhibitor, which would result in 50% inhibition of FBPase activity. The Roman numbers designate the compounds' numbers as depicted in Formula A for which inhibition of FBPase activity has been measured.
For `CC(C)CC(C(=O)NCCc1ccc(O)cc1)N1C(=O)[C@@H]2Cc3ccccc3CN2C(=O)[C@@H]1Cc1ccc(O)cc1` (some centres unmarked) [Compound XII, 2-[3-(4-Hydroxy-benzyl)-1,4-dioxo-1,3,4,6,11,11a-hexahydro-pyrazino[1,2-b]isoquinolin-2-yl]-4-methyl-pentanoic acid [2-(4-hydroxy-phenyl)-ethyl]-amide], the IC50 is 54 µM.

For the compound `NC(=O)c1ccc(C(C(=O)NCCc2ccc(F)cc2)N2C(=O)[C@@H]3Cc4ccccc4CN3C(=O)[C@@H]2CC2CCCCC2)cc1` (some centres unmarked) [Compound VIII, 4-{(3-Cyclohexylmethyl-1,4-dioxo-1,3,4,6,11,11a-hexahydro-pyrazino[1,2-b]isoquinolin-2-yl)-[2-(4-fluoro-phenyl)-ethylcarbamoyl]-methyl}-benzamide], the IC50 was 32 µM.

`CC(C)C[C@H]1C(=O)N2Cc3ccccc3C[C@H]2C(=O)N1C(C(=O)NCCc1ccc(O)cc1)c1ccc(C#N)cc1` (some centres unmarked) [Compound VII, 2-(4-Cyano-phenyl)-N-[2-(4-hydroxy-phenyl)-ethyl]-2-(3-isobutyl-1,4-dioxo-1,3,4,6,11,11a-hexahydro-pyrazino[1,2-b]isoquinolin-2-yl)-acetamide]: the IC50 worked out at 30 µM.

`O=C(O)CCCCCNC(=O)C(c1ccc(Oc2ccccc2)cc1)N1C(=O)[C@H](Cc2ccccc2)NC(=O)[C@@H]1CC1CCCCC1` (some centres unmarked) [Compound XVI, 6-[2-(3-Benzyl-6-cyclohexylmethyl-2,5-dioxo-piperazin-1-yl)-2-(4-phenoxy-phenyl)-acetylamino]-hexanoic acid]: the IC50 came to 34 µM.

`CCCCCC(C(=O)NCCc1ccc(O)cc1)N1C(=O)[C@@H]2Cc3ccccc3CN2C(=O)[C@@H]1Cc1ccc(O)cc1` (some centres unmarked) [Compound X, 2-[3-(4-Hydroxy-benzyl)-1,4-dioxo-1,3,4,6,11,11a-hexahydro-pyrazino[1,2-b]isoquinolin-2-yl]-heptanoic acid [2-(4-hydroxy-phenyl)-ethyl]-amide]: the IC50 amounted to 40 µM.

In the case of `CCCC(C(=O)NCCc1ccc(O)cc1)N1C(=O)[C@@H]2Cc3ccccc3CN2C(=O)[C@@H]1Cc1ccc(O)cc1` (some centres unmarked) [Compound XI, 2-[3-(4-Hydroxy-benzyl)-1,4-dioxo-1,3,4,6,11,11a-hexahydro-pyrazino[1,2-b]isoquinolin-2-yl]-pentanoic acid [2-(4-hydroxy-phenyl)-ethyl]-amide], the IC50 came out at 45 µM.

Regarding `N#Cc1ccc(C(C(=O)NCCc2ccc(O)cc2)N2C(=O)[C@@H]3Cc4ccccc4CN3C(=O)[C@@H]2Cc2ccccc2)cc1` (some centres unmarked) [Compound IV, 2-(3-Benzyl-1,4-dioxo-1,3,4,6,11,11a-hexahydro-pyrazino[1,2-b]isoquinolin-2-yl)-2-(4-cyano-phenyl)-N-[2-(4-hydroxy-phenyl)-ethyl]-acetamide], the IC50 worked out at 15 µM.

Consider `N#Cc1ccc(C(C(=O)NCc2ccc(C(=O)N3CCOCC3)cc2)N2C(=O)[C@@H]3Cc4ccccc4CN3C(=O)[C@@H]2CC2CCCCC2)cc1` (some centres unmarked) [Compound XIII, 2-(4-Cyano-phenyl)-2-(3-cyclohexylmethyl-1,4-dioxo-1,3,4,6,11,11a-hexahydro-pyrazino[1,2-b]isoquinolin-2-yl)-N-[4-(morpholine-4-carbonyl)-benzyl]-acetamide], for which the IC50 was determined as 57 µM.

For the compound `CCCC(C(=O)NCCc1ccc(O)cc1)N1C(=O)[C@@H]2Cc3ccccc3CN2C(=O)[C@@H]1Cc1ccccc1` (some centres unmarked) [Compound IX, 2-(3-Benzyl-1,4-dioxo-1,3,4,6,11,11a-hexahydro-pyrazino[1,2-b]isoquinolin-2-yl)-pentanoic acid [2-(4-hydroxy-phenyl)-ethyl]-amide], the IC50 turned out to be 34 µM.

With `Cc1ccc(C(C(=O)NCCc2ccc(O)cc2)N2C(=O)[C@@H]3Cc4ccccc4CN3C(=O)[C@@H]2C)cc1` (some centres unmarked) [Compound XVII, N-[2-(4-Hydroxy-phenyl)-ethyl]-2-(3-methyl-1,4-dioxo-1,3,4,6,11,11a-hexahydro-pyrazino[1,2-b]isoquinolin-2-yl)-2-p-tolyl-acetamide], the half-inhibitory concentration (IC50) worked out at 37 µM.

On to `N#Cc1ccc(C(C(=O)NCCc2cccc(O)c2)N2C(=O)[C@@H]3Cc4ccccc4CN3C(=O)[C@@H]2CC2CCCCC2)cc1` (some centres unmarked) [Compound III, 2-(4-Cyano-phenyl)-2-(3-cyclohexylmethyl-1,4-dioxo-1,3,4,6,11,11a-hexahydro-pyrazino[1,2-b]isoquinolin-2-yl)-N-[2-(3-hydroxy-phenyl)-ethyl]-acetamide], for which the IC50 was 8 µM.

Regarding `O=C(O)c1ccc(CNC(=O)C(c2ccc(Oc3ccccc3)cc2)N2C(=O)[C@@H]3Cc4ccccc4CN3C(=O)[C@@H]2CC2CCCCC2)cc1` (some centres unmarked) [Compound XIV, 4-{[2-(3-Cyclohexylmethyl-1,4-dioxo-1,3,4,6,11,11a-hexahydro-pyrazino [1,2-b]isoquinolin-2-yl)-2-(4-phenoxy-phenyl)-acetylamino]-methyl}-benzoicacid], the IC50 was 24 µM.

On to `O=C(O)c1ccc(CNC(=O)C(c2ccc3c(c2)-c2ccccc2C3)N2C(=O)C3Cc4ccccc4CN3C(=O)C2Cc2ccccc2)cc1` (centres unmarked) [Compound XV, 4-{[2-(3-Benzyl-1,4-dioxo-1,3,4,6,11,11a-hexahydro-pyrazino[1,2-b]isoquinolin-2-yl)-2-(9H-fluoren-3-yl)-acetylamino]-methyl}-benzoic acid], for which the IC50 turned out to be 27 µM.

As to `O=C(O)CCCCCNC(=O)C(c1ccc(Oc2ccccc2)cc1)N1C(=O)C(Cc2ccc([N+](=O)[O-])cc2)NC(=O)C1Cc1ccccc1` (centres unmarked) [Compound XVIII, 6-[2-[2-Benzyl-5-(4-nitro-benzyl)-3,6-dioxo-piperazin-1-yl]-2-(4-phenoxy-phenyl)-acetylamino]-hexanoic acid], the 50% inhibitory concentration (IC50) is 95 µM.

For the compound `O=C(NCCc1ccc(O)cc1)C(c1ccc([N+](=O)[O-])cc1)N1C(=O)[C@H](Cc2ccccc2)NC(=O)[C@@H]1CC1CCCCC1` (some centres unmarked) [Compound VI, 2-(3-Benzyl-6-cyclohexylmethyl-2,5-dioxo-piperazin-1-yl)-N-[2-(4-hydroxy-phenyl)-ethyl]-2-(4-nitro-phenyl)-acetamide], the IC50 turned out to be 24 µM.

Turning to `CC(C)C[C@H]1C(=O)N2Cc3ccccc3C[C@H]2C(=O)N1C(C(=O)NCCc1ccc(O)cc1)c1ccc([N+](=O)[O-])cc1` (some centres unmarked) [Compound V, N-[2-(4-Hydroxy-phenyl)-ethyl]-2-(3-isobutyl-1,4-dioxo-1,3,4,6,11,11a-hexahydro-pyrazino[1,2-b]isoquinolin-2-yl)-2-(4-nitro-phenyl)-acetamide], the IC50 was 21 µM.

Turning to `N#Cc1ccc(C(C(=O)NCCc2ccc(O)cc2)N2C(=O)[C@@H]3Cc4ccccc4CN3C(=O)[C@@H]2CC2CCCCC2)cc1` (some centres unmarked) [Compound II, 2-(4-Cyano-phenyl)-2-(3-cyclohexylmethyl-1,4-dioxo-1,3,4,6,11,11a-hexahydro-pyrazino[1,2-b]isoquinolin-2-yl)-N-[2-(4-hydroxy-phenyl)-ethyl]-acetamide], the IC50 was 2.1 µM.

Consider `N#Cc1ccc(C(C(=O)NCCc2ccc(O)cc2)N2C(=O)C3Cc4ccc(O)cc4CN3C(=O)[C@@H]2CC2CCCCC2)cc1` (some centres unmarked) [Compound I, 2-(4-Cyano-phenyl)-2-(3-cyclohexylmethyl-8-hydroxy-1,4-dioxo-1,3,4,6,11,11a-hexahydro-pyrazino[1,2-b]isoquinolin-2-yl)-N-[2-(4-hydroxy-phenyl)-ethyl]-acetamide], for which the IC50 was found to be 0.37 µM.

The assay is the same for the next values; noted with them: controls used in the assay; read-out: 1(50 [IC50] of the assay controls.
Turning to `O=P(O)(O)OC[C@H]1O[C@@](CO)(OP(=O)(O)O)[C@@H](O)[C@@H]1O` [fructose 2.6-bisphosphate, reference compound], the IC50 was determined as 2.9 ± 0.9 µM.

As to `Nc1ncnc2c1ncn2[C@@H]1O[C@H](COP(=O)(O)O)[C@@H](O)[C@H]1O` [adenosine monophosphate, reference compound], the IC50 was determined as 1.4 ± 0.5 µM.
